Data from US20250339454A1, “COMPOSITIONS AND METHODS FOR THE PREVENTION OF LOSS OF ORGAN FUNCTION ASSOCIATED WITH CHRONIC ORGAN DISEASE” (Revelation Biosciences, Inc., priority 2023, published 2025).
“Also recorded” adds a separate entry of the source. Where two headings read alike, the source gives them in different places.

Tested on: rat UUO model of acute kidney injury and chronic kidney disease
Format: in vivo
From the text: Composite data represents the average of 3 anatomically distinct depths (10 images/depth/rat/group=˜60-65% of renal cortical area).

[1] = rat serum, Day 7 post UUO, all groups, dose dependent, relative to the positive control group

Molecule | IL-6 (marker of inflammation) (UUO model) | fibrosis (collagen volume fraction, total collagen deposition via PicoSirius Red) (daily administration, dose dependent, relative to the positive control group) | UUO-induced increases in renal cortical CVF (dosed at 0.3 mg/kg) | UUO-induced increases in renal cortical CVF (dosed at 0.9 mg/kg) | IL-1β (marker of inflammation) (rat serum, Day 7 post UUO) | IL-18 (marker of inflammation) (rat serum, Day 7 post UUO) | circulating anti-inflammatory interleukin-10 (IL-10) [1] | circulating hepcidin [1] | circulating neutrophil gelatinase-associated lipocalin (NGAL) [1] | circulating transforming growth factor-β (TGF-β) (rat serum, Day 7 post UUO, daily administration, dose dependent, relative to the positive control group) | UUO-induced increases in renal cortical CVF (reference compound, dose not given)
phosphorylated hexaacyl disaccharide [REVTx-300] | no increase | significant reduction; also recorded: Dose-dependent reduction | attenuated | attenuated | relatively minor increase | relatively minor increase | significantly increased | significantly increased | significantly increased | significant reduction | 
Cc1cccc(-c2[nH]c(C(C)(C)C)nc2-c2ccc3nccnc3c2)n1 [SB-525334, reference compound] |  |  |  |  |  |  |  |  |  |  | attenuated
